Data reported in PMC12440824, “Chimeric deubiquitinase engineering reveals structural basis for specific inhibition of the mitophagy regulator USP30” (Nature Structural & Molecular Biology, 2025).

Key:
[1] = target: T1, USP30^ch3 F453Y (Homo sapiens, UniProt Q70CQ3, F453Y, form not given); experiment: Ub–RhoG cleavage enzyme inhibition assay, chimera 3 F453Y; type: biochemical; design: USP30ch3 F453Y activity / USP30ch3 F453Y activity (ED Fig. 7e series): scale not given here; conditions: for reduction of inhibition potency by F453Y substitution (specificity window vs WT): USP30^ch3 F453Y vs WT; for USP30ch3 F453Y activity (ED Fig. 7e series) / USP30ch3 F453Y activity: mean n=3; for USP30ch3 F453Y activity: Fig. 4e,g
Procedure: Enzyme kinetics were performed in black, low-volume, non-binding-surface 384-well plates. […] Next, 10 µl of 2× enzyme solution was added in triplicate to the plate. The reaction was started by adding 10 µl of 2× substrate solution. […] Inhibitor solution (4×) was added to 4× enzyme solution to create a 2× enzyme–inhibitor mixture. Next, 10 µl of this 2× enzyme–inhibitor mixture was then added to the plate in triplicate, and the plate was incubated at room temperature for 90 min. The reaction was started by adding 10 µl of 2× Ub–RhoG substrate. […] Data were analyzed with GraphPad Prism.

[2] = tested on: HeLa cells expressing YFP–parkin; ubiquitination of USP30 substrates (TOM20, TOM40, MFN2); experiment: Mitochondrial ubiquitination analysis (OtUBD enrichment, western blot); type: cell-based, human; conditions: 2 µM compound 19 h, then 10 µM CCCP 1 h
Procedure: Using a Trans-Blot Turbo system (Bio-Rad, 1.0 A, 25 V, 30 min), proteins were blotted onto a nitrocellulose membrane. Membranes were saturated by incubating in 5% (wt/vol) non-fat milk in PBS-T. Primary antibodies (anti-Flag, 1:1,000, Sigma, F3165; anti-USP30, 1:500, Sigma, HPA016952; anti-vinculin, 1:10,000, Sigma, V9131; anti-GAPDH, 1:10,000, Thermo Fisher, AM4300; anti-TOM40, 1:2,000, Proteintech, 18409-1-AP; anti-TOM20, 1:5,000, Proteintech, 11802-1-AP; anti-MFN2, 1:5,000, Proteintech, 12186-1-AP) were allowed to bind overnight. Appropriate horseradish peroxidase-coupled secondary antibodies (anti-mouse, 1:5,000, Sigma, NXA931; anti-rabbit, 1:5,000, Sigma, GENA934) were applied, and chemiluminescence was generated using Clarity Western ECL Substrate (Bio-Rad). For detection of endogenous USP30 levels, the Clarity Western ECL Substrate was supplemented with 10% Clarity Max Western ECL Substrate (Bio-Rad). Images were recorded on a ChemiDoc MP Imaging System (Bio-Rad).
HeLa cells constitutively expressing YFP–parkin were treated with 2 µM of the respective compounds or an equivalent volume of DMSO on the day after seeding. Nineteen hours after compound treatment, 10 µM carbonyl cyanide m-chlorophenyl hydrazone (CCCP, Acros Organics) or DMSO of the equivalent volume was added for 1 h before cells were washed with ice-cold PBS. Cells were then lysed in urea lysis buffer (4 M urea, 50 mM Tris-HCl, pH 8, 150 mM NaCl, 1% (vol/vol) IGEPAL, 2 mM EDTA, 5% (vol/vol) glycerol, 1× EDTA-free protease inhibitor cocktail, 1 mM PMSF, 10 µM PR619, 20 mM N-ethylmaleimide, 4 mM 1,10-phenanthroline) and collected by scraping. Cells were homogenized by sonication for 10 s (2 s on and 2 s off) at 10% amplitude and centrifuged for 10 min at 14,000g and 4 °C.
Biotinylated OtUBD (2 nmol, prepared as described elsewhere[53]) was immobilized on 35 µl of a high-capacity NeutrAvidin agarose bead slurry (Pierce, Thermo Fisher Scientific) per condition for 1 h at 4 °C with rotation. Excess reagent was washed away with ice-cold PBS. The beads were then equilibrated in urea lysis buffer. For each condition, an equal amount of 3 mg protein (as determined by the Bradford assay, in 1 ml of lysis buffer, typically obtained from one 10-cm dish) was added to the beads. These were then incubated for 2 h at 4 °C with rotation and pelleted by centrifugation at 500g for 1 min, and the supernatant was removed. Beads were then washed once with lysis buffer, once with high-salt buffer (50 mM Tris-HCl, pH 8, 1 M NaCl) and twice with PBS. Elution was carried out using 2× LDS sample buffer with 25 mM DTT and boiling for 5 min at 95 °C. After pelleting the beads at 500g for 1 min, the supernatant was transferred and analyzed by SDS–PAGE and western blotting as described above.

[3] = tested on: USP30 c2; experiment: Thermal shift assay, USP30 c2; type: binding, human; conditions: 20 μM inhibitor; for ΔTm, USP30 c2: replicates or average
Procedure: (§1) The thermal stability of USP30 constructs and effects of either inhibitor or Ub-PA binding were determined by thermal shift assays. Inhibitor, Ub-PA and SYPRO orange dye (Sigma, 5,000× stock in DMSO) solutions were prepared in 1× PBS, 4 mM DTT. Inhibitor/Ub-PA was prediluted to 100 µM, and SYPRO orange dye was prediluted to 50× (from the commercial stock). Mixtures of protein, inhibitor/Ub-PA and SYPRO were prepared with inhibitor/Ub-PA at a final concentration of 20 μM, SYPRO at a final concentration of 4× and protein at a final concentration of 2 μM for c1, 4 μM for ch1, ch4 and c2 and 3 μM for ch2 and ch3. Samples were added in triplicate to a white 96-well PCR plate (Bio-Rad). Fluorescence intensity was monitored (excitation, 450–490 nm; emission, 560–580 nm) at a gradient of 20–90 °C (increment of 0.3 °C, hold for 5 s before read) on a real-time PCR system (Bio-Rad).

[4] = target: T1, USP30^ch3 F453Y; experiment: Thermal shift assay, USP30 ch3 F453Y; type: binding; conditions: 20 μM inhibitor
Procedure: as §1

[5] = target: USP30^ch3 F157A (Homo sapiens, UniProt Q70CQ3, F157A, form not given); experiment: Thermal shift assay, USP30 ch3 F157A; type: binding; conditions: 20 μM inhibitor
Procedure: as §1

T1 sequence (Q70CQ3 64-502 F453Y, form open): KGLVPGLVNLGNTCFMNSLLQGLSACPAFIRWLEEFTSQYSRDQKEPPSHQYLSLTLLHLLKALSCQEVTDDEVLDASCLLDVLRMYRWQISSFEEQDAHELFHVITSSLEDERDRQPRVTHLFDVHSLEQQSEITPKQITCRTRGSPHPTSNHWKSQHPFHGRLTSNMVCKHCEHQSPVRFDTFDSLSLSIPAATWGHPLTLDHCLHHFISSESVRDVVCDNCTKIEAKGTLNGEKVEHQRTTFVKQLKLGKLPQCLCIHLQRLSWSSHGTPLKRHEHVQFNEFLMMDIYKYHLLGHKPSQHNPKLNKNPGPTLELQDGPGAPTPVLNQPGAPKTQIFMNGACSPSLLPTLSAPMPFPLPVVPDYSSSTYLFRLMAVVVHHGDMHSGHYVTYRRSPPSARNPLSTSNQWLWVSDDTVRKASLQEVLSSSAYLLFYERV
T1 sequence (P54578 248-318 partner, form open): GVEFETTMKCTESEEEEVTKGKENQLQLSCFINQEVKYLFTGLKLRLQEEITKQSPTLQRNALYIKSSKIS
T1 sequence (Q9P2H5 821-846 partner, form open): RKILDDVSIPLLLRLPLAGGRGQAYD
USP30^ch3 F157A, sequence (Q70CQ3 64-502 F157A, form open): as the sequence (Q70CQ3 64-502 F453Y, form open) above, with F94A, Y390F counted along it
USP30^ch3 F157A, sequence (P54578 248-318 partner, form open): as the sequence (P54578 248-318 partner, form open) above

## CC(C)(C)NS(=O)(=O)c1ccc(NC(=O)[C@H](Cc2ccccc2)NC(=O)c2ccc(F)cc2)cc1 [compound 39]
[1]
  reduction of inhibition potency by F453Y substitution (specificity window vs WT): three orders of magnitude
[1]; inhibitor 0.001563 nM
  USP30ch3 F453Y activity (ED Fig. 7e series): 1.055
  USP30ch3 F453Y activity: 0.9971
[1]; inhibitor 0.00625 nM
  USP30ch3 F453Y activity (ED Fig. 7e series): 1.076
  USP30ch3 F453Y activity: 1.054
[1]; inhibitor 0.025 nM
  USP30ch3 F453Y activity (ED Fig. 7e series): 1.018
  USP30ch3 F453Y activity: 1.004
[1]; inhibitor 0.1 nM
  USP30ch3 F453Y activity (ED Fig. 7e series): 0.9989
  USP30ch3 F453Y activity: 0.9561
[1]; inhibitor 0.39 nM
  USP30ch3 F453Y activity (ED Fig. 7e series): 0.8995
  USP30ch3 F453Y activity: 0.9204
[1]; inhibitor 1.56 nM
  USP30ch3 F453Y activity (ED Fig. 7e series): 0.9776
  USP30ch3 F453Y activity: 0.9185
[1]; inhibitor 6.25 nM
  USP30ch3 F453Y activity (ED Fig. 7e series): 0.9466
  USP30ch3 F453Y activity: 0.9079
[1]; inhibitor 25 nM
  USP30ch3 F453Y activity (ED Fig. 7e series): 0.9111
  USP30ch3 F453Y activity: 0.8377
[1]; inhibitor 100 nM
  USP30ch3 F453Y activity (ED Fig. 7e series): 0.8886
  USP30ch3 F453Y activity: 0.7744
[1]; inhibitor 400 nM
  USP30ch3 F453Y activity (ED Fig. 7e series): 0.7448
  USP30ch3 F453Y activity: 0.5461
[1]; inhibitor 1600 nM
  USP30ch3 F453Y activity (ED Fig. 7e series): 0.7279
  USP30ch3 F453Y activity: 0.3171
[2]
  polyubiquitination of TOM20 and TOM40: elevated
  polyubiquitination of mitofusin 2 (MFN2): not affecting
[3]
  Tm in presence of compound, USP30 c2: 58.5 °C
  ΔTm, USP30 c2: 7.8 °C
[4]
  Tm in presence of compound, USP30^ch3 F453Y: 58.5 °C
[5]
  Tm in presence of compound, USP30^ch3 F157A: 58.8 °C

## CC(C)(CO)NS(=O)(=O)c1ccc(NC(=O)[C@H](Cc2ccccc2)NC(=O)c2ccc(F)cc2)cc1 [NK036]
[1]
  reduction of inhibition potency by F453Y substitution (specificity window vs WT): more than two orders of magnitude
[2]
  polyubiquitination of TOM20 and TOM40: elevated
  polyubiquitination of mitofusin 2 (MFN2): not affecting
[3]
  Tm in presence of compound, USP30 c2: 58.2 °C
  ΔTm, USP30 c2: 7.5 °C
[4]
  Tm in presence of compound, USP30^ch3 F453Y: 58.2 °C
[5]
  Tm in presence of compound, USP30^ch3 F157A: 58.5 °C
